Read-outs that look alike come from different tables or passages of the source.

Here are results for three molecules from patent US20160303147A1 (priority 2007, published 2016).

For data set [1] the following is noted: intravenous infusion, patients; cited from earlier work.
Data set [2] is described as follows: Clinical pharmacokinetics in healthy volunteers, single dose of CMX001. Type of data set: in vivo. The following applies: Human, analyte = label. Here is the method: (§1) An initial study was conducted to evaluate the safety and pharmacokinetics of
(§2) CMX001 in healthy volunteers. The study consisted of a single dose arm (SD) and a multiple dose arm (MD). In the single dose arm 7 cohorts of 6 subjects were treated (4 subjects received active drug and 2 placebo). Enrollment was staggered as 2 subjects (one active, one placebo) followed by 4 subjects (Groups A and B). The estimated single doses for the two highest doses treated for a […] subject were 40 mg (0.6 mg/kg cohort 6) and 70 mg (1 mg/kg cohort 7). In the multiple dose arm, cohort 6MD received 0.1 mg/kg on Day 0, 6 and 12; Cohort 7MD received 0.2 mg/kg on Day 0, 6 and 12. Levels of cidofovir, CMX001 and CMX064 (major metabolite) were measured in blood and urine of subjects during the course of the study. Gastrointestinal (GI) monitoring of the subjects included (a) monitoring for clinical signs of GI adverse events, (b) monitoring for clinical symptoms using a visual Analog Scale, (c) monitoring for appetite loss/anorexia, nausea, vomiting, diarrhea, constipation and intestinal gas/bloating, (d) laboratory tests for fecal occult blood; serum electrolytes, urine specific gravity, BUN/creatinine ratio; serum albumin, and lipids, and (e) diagnostic studies (the Wireless capsule endoscopy (PillCam®, Given Imaging)).
Table 3 illustrates the PK comparison of CMX 001 with CMX 021 and CMX 064 for mouse, rabbit and human.

In data set [3] the test system is lethal Orthopoxivirus infections. Format: in vivo. The settings on record: mice and rabbits.
Data set [4] in a line: Clinical safety study in healthy volunteers, single dose cohort 6. Format: in vivo, human. The following applies: cohort 6, 600 μg/kg single dose, still blinded. Here is the method: as §1, §2
Plasma concentration curves of CMX001 following a single dose administration are shown in FIG. 1, and plasma concentration curves of cidofovir following a single dose of CMX001 are shown in FIG. 2.

Turning to `Nc1ccn(C[C@@H](CO)OCP(=O)(O)O)c(=O)n1` [Cidofovir], in data set [1], the nephrotoxicity entry is given as “dose-limited by its nephrotoxicity”.

As to `Nc1ccn(C[C@@H](CO)OCP(=O)(O)OCCCOCCCC(=O)O)c(=O)n1` [CMX064], the AUCO→ in data set [2] (CMX001 dose 0.050 mg/kg) was found to be 0.03895 µg·h/mL; in data set [2] (CMX001 dose 0.100 mg/kg), 0.03402 µg·h/mL; in data set [2] (CMX001 dose 0.200 mg/kg), 0.03973 µg·h/mL; in data set [2] (CMX001 dose 0.400 mg/kg) it was 0.20299 µg·h/mL; in data set [2] (CMX001 dose 0.600 mg/kg), 0.187 µg·h/mL. In addition, the Cmax (in general, the peak of the concentration-time curve) in data set [2] (CMX001 dose 0.050 mg/kg) came out at 4.63 ng/mL; in data set [2] (CMX001 dose 0.100 mg/kg) it was 2.85 ng/mL; in data set [2] (CMX001 dose 0.200 mg/kg), 4.55 ng/mL; in data set [2] (CMX001 dose 0.400 mg/kg), 23.03 ng/mL; in data set [2] (CMX001 dose 0.600 mg/kg) it was 24.86 ng/mL.

With `CCCCCCCCCCCCCCCCOCCCOP(=O)(O)CO[C@H](CO)Cn1ccc(N)nc1=O` [CMX001], the effective dose in data set [3] (daily for 5 days, low titer inoculums) lay in the range of 1 to 2 mg/kg. The molecule also returned an effective dose in data set [3] (late stage, single dose) of 20 to 30 mg/kg. Also, the “protection against lethal Orthopoxivirus infections” value in data set [3] is “essentially completely protective”. In data set [4], the adverse events result is “No serious adverse events (SAEs), no significant adverse events (AEs) (i.e. ≧Grade 2), no AEs directly attributable to drug”; the “changes to clinical laboratory values” is given as “No drug associated clinically significant changes to clinical laboratory values, including those indicative of kidney dysfunction”; the “gastrointestinal capsule endoscopy findings” value is “No post-dose clinically significant gastrointestinal capsule endoscopy findings attributable to drug”.
